Measurements from patent US20210298297A1, “MOSQUITO ATTRACTANTS” (Wageningen Universiteit, priority 2018, published 2021).

Tests used:
Anopheles coluzzii = experiment: Dual-port olfactometer preference test of IAC and IAC blends; format: in vivo; conditions: for behavioural response on supplementing parasite-free odour with the IAC alone: individual IAC, at least two concentrations, with parasite-free odour (socks) vs parasite-free odour alone
Method: Six IAC (heptanal, octanal, nonanal, (E)-2-octenal, (E)-2-decenal and 2-octanone) were tested in a background of odour from the worn nylon socks of twelve parasite-free children (18S qPCR confirmed). Each sock pair was cut into twelve strips after removing the foot part, then 12 bundles were made, each containing a strip from each individual. Bundles were stored at −20° C. until, and between, experiments. IAC were positioned downwind and separated from sock bundles by a metal grid, ensuring no contact. Parasite-free odour (bundles) was tested with or without individual IAC (in 10 μL hexane on filter paper) and against the same but with hexane alone.
Next, we verified whether the IAC could improve a mosquito lure for monitoring or mass trapping of Anopheles. Heptanal, the most promising candidate from the above experiment, was tested as well as two blends: Plas 5 contained the IAC that were associated with parasitological positivity (nonanal, heptanal, octanal, (E)-2-decenal and (E)-2-octenal), and Plas 6 additionally contained the gametocyte-associated 2-octanone (FIG. 3). Each of Plas 5 and Plas 6 were made up in hexane by weighing the appropriate amounts of constituent compounds into a volumetric flask. […] Plas 5 and Plas 6 were tested with the synthetic lure MB5^36 at four concentrations, each decreasing by a factor of 10 from the 100% concentration by serial dilution.
MB5 was presented on nylon strips as described in Menger et al. (2014)^36 (except the five compounds were incubated onto a single 5×26.5 cm nylon strip instead of five narrower strips). 10 μl of the Plas5 or Plas6 blend at 100% or serial dilution was pipetted onto a filter paper and added in the same olfactometer trap.
A triple chamber dual-port olfactometer^59 was used to test the preference of 30 five- to eight-day-old female, non blood-fed Anopheles coluzzii (Suokoko strain^21, rearing procedures as published previously^21) for parasite free odour or MB5, supplemented with IAC or IAC blends, against background odour alone (parasite-free odour or MB5). Mosquitoes were maintained in a release cage prior to testing (for 16-22 hours). Experiments took place during the last four hours of the scotophase under near-dark conditions (<1 lux). Mosquitoes were allowed to fly for 15 minutes, then those that had entered the traps with test/control odours were counted. Each IAC/concentration combination was tested eight-nine times on different days, and each Plas concentration 10-11 times on different days, rotating treatments between the left and right port of the olfactometer. Climatic data (R.H., temperature and air pressure) were recorded in the flight chambers and in the surrounding room.
Generalized linear models (GLMs) were used to test the effect of odours (individual IAC/heptanal/Plas blends) on relative attractiveness (the proportion of mosquitoes selecting the test odour). GLMs were run as described above (statistical analysis, attractiveness of ‘infected odour’ (socks) by cage assays), testing parameters associated with the set-up as additional factors or covariates in the model, and retaining when significant (P<0.05, F-test). Sets of compounds were run in separate models. SPSS® was used for the analyses.

[1] = system: Anopheles coluzzii antennae; experiment: Gas chromatography-electroantennography (GC-EAG) of pooled odour samples; conditions: analytes in pooled foot odour extracts; >3 responses of 6/7 repetitions = EAG-active
Method: Porapak filters were eluted using re-distilled diethyl ether (750 μL), and, to approximate an “average” odour per category, extracts were pooled according to the individual's parasitological status: (1) Plasmodium infection, no gametocytes (2) high-density P. falciparum gametocytes (3) parasite-free individuals, (4) Plasmodium infection, sub-microscopic P. falciparum gametocytes. Aliquots (400 μL) of extracts were mixed, then concentrated (to 60 μL) under a stream of nitrogen (charcoal-filtered). Glassware, charcoal filters and PTFE tubing were cleaned as before.
GC-EAG was conducted during the scotophase, using four- to eight- day-old, unfed female Anopheles coluzzii (N′gousso strain^56). Adults were maintained at 70% RH, with a 12 h light/dark cycle (scotophase 09:00-21:00) and access to 50% glucose solution. The order of testing blends was determined by a 5×5 Latin square (including control blend). The mosquito head was dissected, and the palps, proboscis, and half of the terminal (13th) antennal flagellomere cut off. The indifferent electrode was inserted into the back of the head and the antennal tips guided into the recording electrode to complete the circuit (FIG. 3). Electrodes were hand-pulled glass tips inserted over silver wire (diameter 0.37 mm; Harvard Apparatus, Edenbridge, UK) and filled with Ringers' solution^15. […] The eluate was split to the FID detector and EAG interface at a ratio of 1:1. At the EAG interface, the eluate passed from the heated splitter column to a stream of charcoal filtered, humidified air (flow rate 400 mL/min). This airflow was directed over the antenna at a distance of 5 mm. The signal was amplified ×10,000 by the Intelligent Data Acquisition Controller-4, and signals were analysed using EAD 2000 software (both Syntech®, Hilversum, The Netherlands). Responses were signified by a depolarisation of sufficient amplitude. Peaks that elicited responses in more than 3, of the 6/7 total repetitions, were considered to be EAG-active.

Row | Structure (SMILES) | behavioural response on supplementing parasite-free odour with the IAC alone (Anopheles coluzzii) | antennal (EAG) response [1] | proportion of mosquitoes selecting the test odour (GLM, 95 CI) (Anopheles coluzzii; 10 μL heptanal at 10^−8 g/mL added to parasite-free odour (socks) vs parasite-free odour alone) | effect on attractiveness of parasite-free odour (Anopheles coluzzii; heptanal at 10^−7 g/mL added to parasite-free odour vs parasite-free odour alone) | attractiveness of MB5 supplemented with the compound relative to control MB5 (Anopheles coluzzii; three concentrations, data not shown)
1 | CCCCCCC(C)=O [2-octanone] | did not induce altered behavioural responses | – | – | – | –
2 | CCCCCCC/C=C/C=O [(E)-2-decenal] | did not induce altered behavioural responses | – | – | – | –
3 | CCCCC/C=C/C=O [(E)-2-octenal] | did not induce altered behavioural responses | – | – | – | –
4 | CCCCCCC=O [heptanal] | – | elicit antennal response | 0.60-0.84 | no effect | equally attractive
5 | CCCCCCCCC=O [nonanal] | did not induce altered behavioural responses | elicit antennal response | – | – | –
6 | CCCCCCCC=O [octanal] | did not induce altered behavioural responses | elicit antennal response | – | – | –
